The nature of data set [1]: Intrinsic clearance (Cli), mouse liver microsomes. The class given is in vitro ADME. The note with it: 0.5 µM, scaling factor 48 mg microsomal protein per g liver. As to the method: (§1) Test compound (0.5 µM) was incubated with female CD1 mouse, male rat Han Wistar and pooled human liver microsomes (Xenotech^TM; 0.5 mg/mL 50 mM potassium phosphate buffer, pH7.4) and the reaction started with addition of excess NADPH (8 mg/mL 50 mM potassium phosphate buffer, pH7.4). Immediately, at time zero, then at 3, 6, 9, 15 and 30 min an aliquot (50 µL) of the incubation mixture was removed and mixed with acetonitrile (100 uL) to stop the reaction. An internal standard was added to all samples, the samples centrifuged to sediment precipitated protein and the plates then sealed prior to UPLC-MSMS analysis (Xevo TQ-S Micro, Waters^TM). XLfit (IDBS, UK) was used to calculate the exponential decay and consequently the rate constant (k) from the ratio of peak area of test compound to internal standard at each timepoint. The rate of intrinsic clearance (CLi) of each test compound was then calculated using the following calculation:1 CLi(mL/min/gliver)=kxVxMicrosomalproteinyield Where V (mL/mg protein) is the incubation volume/mg protein added and microsomal protein yield is taken as 48 mg, 46 mg and 40 mg protein/g liver for mouse, rat and human, respectively. Verapamil (0.5 µM) was used as a positive control to confirm acceptable assay performance.
A general note: Liver microsomes are a subcellular fraction often used to study metabolism.

A short description of data set [2]: Intrinsic clearance (Cli), rat liver microsomes. The class given is in vitro ADME. The note with it: 0.5 µM, scaling factor 46 mg microsomal protein per g liver. As to the method: as §1
A short description of data set [3]: Intrinsic clearance (Cli), human liver microsomes. The class given is in vitro ADME. The conditions noted are these: 0.5 µM, scaling factor 40 mg microsomal protein per g liver. How it is done:
as §1

Data set [4] addresses T1, GSK3β-HiBiT (GSK3β-HiBiT KI HEK293 cells) (Homo sapiens, UniProt P49841).
T1 construct: we generated endogenously tagged GSK3β-HiBiT knock-in (KI) HEK293 cells; endogenous in cells; host or cells: GSK3β-HiBiT knock-in HEK293 cells (CRISPR/Cas9, single-cell clone)
Put plainly: HiBiT lytic degradation assay / high-throughput screen, 24 h. The note with it: 24 h treatment. The class given is cell-based. How it is done: Crude compounds were assumed to be 10 mM concentration in DMSO and after generating libraries directly used in biological tests in degradation screens. Stock solutions were serially diluted into white bottom opaque 384-well plates (Perkin Elmer) using Echo500 (Labcyte) and DMSO was backfilled to maintain same DMSO content in each well for all concentrations. […] HiBiT lytic assay buffer (Promega) prepared according to the manufacturer’s instructions and added onto each well using Multidrop^TM Combi reagent dispenser. Luminescence signal was measured on PheraStar plate reader (BMG) and obtained data normalised to DMSO conditions using Excel and further analysed using GraphPad Prism (v10.1.2) and degradation curves were generated using 4-parameter non-linear regression fit to calculate DC50 and Dmax values. Data points associated with concentrations displaying a hook effect were excluded prior to DC50 and Dmax calculation.
(The HiBiT peptide binds its large partner to form an active luciferase.)

Data set [5] relates to GSK3β Ser9 and GSK3β Tyr216 phosphorylation. Put plainly: GSK3β phosphorylation (Ser9, Tyr216) immunoblot in HEK293 cells. The class given is cell-based, human. The conditions noted are these: for impact on GSK3β Ser9 or GSK3β Tyr216 phosphorylation prior to degradation: 10 nM 24, 27, 10 nM and 1 µM 29, 30 min. How it is done:
HEK293, HAP1, HAP1 CRBN KO and SH-SY5Y cells were plated in either 6 cm plates or 6-well plates at varying densities (0.5–0.7 × 10^6 cells per plate or wells), and MEF cells were plated in 10 cm plates (1–1.2 × 10^6 cells per plate) depending on experimental set up in respective culturing condition as described above. Stock solutions of compounds were prepared as 10 mM in DMSO (Sigma–Aldrich). Working dilutions were made up fresh in DMSO and culturing media or differentiation media was refreshed prior to any compound treatments. For mode of action studies, cells were pre-treated with inhibitors for 2 h: 1 µM MG132 (Merck, 474790-5 mg), 1 µM MLN4924 (Merck, 5054770001) or 1 µM GSK3 inhibitor (compound 29), before treating with PROTACs for 2, 4 or 24 h as indicated in figure legends. Cells were washed twice with ice-cold PBS (Gibco), harvested in PBS and pelleted, cells were resuspended in RIPA buffer supplemented with complete EDTA-free protease inhibitor cocktail (Roche,11873580001, 1/10 mL) and phosSTOP (Roche, 04906845001, 1 tablet/10 mL) for 20 min lysis on ice then cleared via centrifugation at 16,000 × g, 4 °C for 20 min. SH-SY5Y cells were lysed in 500 µL ice-cold lysis buffer (25 mM Tris-HCl (pH 7.4), 50 mM NaF, 100 mM NaCl, 1 mM EDTA, 4 mM EGTA, 1% (v/v) Triton-X-100, 0.09% (w/v) sucrose, 10 mM sodium pyrophosphate, 10 mM sodium vanodate, 0.1% (v/v) β-mercaptoethanol, supplemented with complete mini protease inhibitor tablet (Sigma; 1 tablet/ 10 mL buffer)). Lysates were flash frozen, thawed and centrifugated at 16,000 × g, 4 °C for 20 min. Following clearance of lysates, protein concentrations were determined by the BCA assay (Fisher Scientific, 23225) or Bradford assay (Bio-rad). Five to thirty micrograms of protein from lysates were prepared in 4×LDS buffer (Thermo Fisher) and 50 mM dithiothreitol (DTT) denaturated at 95 °C for 5 min. Proteins were separated on NuPAGE 4–12% Bis-Tris gels (Invitrogen) or 4–12% Novex Tris-glycine gels (Invitrogen) in MOPS buffer (Invitrogen) and transferred onto nitrocellulose membranes using an iBlot3 system (Thermo Fisher Scientific) or nitrocellulose membranes (Cytiva) in cold tris-glycine-methanol buffer (25 mM Tris (pH 7.5), 192 mM glycine, 20% (v/v) methanol). Membranes were blocked with either 5% fat-free milk (Marvel) or 1% (w/v) BSA (Sigma) in TBS-T (20 mM Tris (pH 7.5), 150 mM NaCl, 0.1% (v/v) Tween-20 (Sigma)) at room temperature for 30 min, or in the case of SH-SY5Y assays, 1 h, before incubating with primary antibodies overnight at 4 °C on a rocker. […]
In general terms: A western blot detects proteins with antibodies after separation by electrophoresis.

For data set [6], the system named is HEK293 cells phosphoproteome. Put plainly: Phosphoproteomics in HEK293 cells. The class given is cell-based, human. Also noted: scale not given here. The conditions noted are these: phosphosite abundance difference. As to the method:
IMAC beads were prepared from Ni-NTA (nitrilotriacetic acid) superflow agarose beads. The nickel was stripped with 100 mM EDTA and incubated in an aqueous solution of 10 mM iron (III) chloride (FeCl3). Dried peptide fractions were reconstituted to a concentration of 0.5 μg/μL in 80% ACN/0.1% TFA. Peptide mixtures were enriched for phosphorylated peptides with 5 μL IMAC beads for 30 min with end-to-end rotation.
Enriched IMAC beads were loaded on Empore C18 silica-packed stage tips. Stage tips were equilibrated with acetonitrile followed by 50% ACN/0.1% FA then 1% FA. The beads with enriched peptides were loaded onto C18 stage tips and washed with 80% ACN/0.1% TFA. Phosphorylated peptides were eluted from IMAC beads with 500 mM dibasic sodium phosphate, pH 7.0. These peptides were washed with 1% FA before elution using 50% acetonitrile in 0.1% FA. The peptides were then dried by SpeedVac and stored at −20 °C until mass spectrometry analysis. The dried phosphopeptides were reconstituted in 0.1% formic acid and analyzed on an Orbitrap Ascend mass spectrometer coupled to a Thermo Fisher Scientific Vanquish Neo UHPLC. […] The total run time was set to 155 min. A survey full scan MS (from m/z 350–1500) was acquired in the Orbitrap at a resolution of 120,000 at 200 m/z. The most intense ions with charge state ≥2 were isolated and fragmented using higher collision dissociation (HCD) fragmentation, with 30% normalised collision energy, and detected at a mass resolution of 50,000 at 200 m/z. The isolation window was set at 1.6. The phosphoproteomics raw data were searched using SEQUEST HT search engines with Proteome Discoverer 3.0 (Thermo Fisher Scientific). The following parameters were used for searches: Precursor mass tolerance 10 ppm, fragment mass tolerance 0.02, enzyme: trypsin, […], fixed modification: carbamidomethylation of cysteine residues and TMT of lysine and N-terminal, dynamic modification: oxidation of methionine and phosphorylation of serine, threonine and tyrosine. The data were filtered for 1% PSM and peptide level. A two-tailed t-test with 250 randomisations was performed in Perseus software (v1.6.15.0) to assess statistical significance between groups. The resulting data were visualised as a volcano plot using GraphPad Prism (v10.1.2).

T1 sequence (P49841 whole entry): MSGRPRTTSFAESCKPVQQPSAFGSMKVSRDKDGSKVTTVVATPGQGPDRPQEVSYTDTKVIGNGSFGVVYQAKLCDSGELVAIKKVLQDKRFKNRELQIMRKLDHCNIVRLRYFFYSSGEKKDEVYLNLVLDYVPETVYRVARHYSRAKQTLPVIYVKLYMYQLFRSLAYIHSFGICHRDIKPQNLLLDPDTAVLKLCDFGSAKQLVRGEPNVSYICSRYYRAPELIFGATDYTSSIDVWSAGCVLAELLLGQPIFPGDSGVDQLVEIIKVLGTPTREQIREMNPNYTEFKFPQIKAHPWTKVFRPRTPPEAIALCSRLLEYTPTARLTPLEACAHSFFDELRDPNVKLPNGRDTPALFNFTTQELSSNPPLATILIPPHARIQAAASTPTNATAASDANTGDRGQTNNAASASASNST

As for `O=C1CCC(NC(=O)c2ccc(CN3CCN(CCCCCc4cn(-c5ccc(-c6cn7nccc(C(=O)Nc8cnccc8N8CCOCC8)c7n6)cc5)nn4)CC3)cc2F)C(=O)N1` (centres unmarked) [compound 21], in data set [1], the “Scaled Microsomal Stability MuClint” value is recorded as 15 ml/min/g liver. Also, the “Scaled Microsomal Stability RatClint” value in data set [2] is given as 2.6 ml/min/g liver. In data set [3], the “Scaled Microsomal Stability HuClint” value is reported as 27 ml/min/g liver.
Broadly, the Dmax is the greatest extent of degradation seen. In the case of `O=C1CCC(NC(=O)c2ccc(CN3CCN(CCCc4cn(-c5ccc(-c6cn7nccc(C(=O)Nc8cnccc8N8CCOCC8)c7n6)cc5)nn4)CC3)cn2)C(=O)N1` (centres unmarked) [compound 23], the Dmax was 81% in data set [4] (HEK293, crude mixture, stock assumed 10 mM) and 73% in data set [4] (HEK293, pure (resynthesised, HPLC purified) compound).
For the compound `CN1C(=O)CCN(c2nn(C)c3cc(CN4CCN(Cc5ccc(-c6cn(-c7ccc(-c8cn9nccc(C(=O)Nc%10cnccc%10N%10CCOCC%10)c9n8)cc7)nn6)nc5)CC4)ccc23)C1=O` [compound 27], the “impact on GSK3β Ser9 or GSK3β Tyr216 phosphorylation prior to degradation” value in data set [5] is reported as “no impact observed”. Further, in data set [6] (27 vs DMSO, MOESM7), the “Difference, E2F8 A0AVK6 1xPhospho [S68(99.5)]” value is -0.2137; the “Difference, E2F8 A0AVK6 1xPhospho [S417(100)]” value turned out to be 0.1148; the “Difference, GATD3B A0A0B4J2D5 1xPhospho [S98(100)]” value amounted to 0.02358; the “Difference, SIK1B A0A0B4J2F2 1xPhospho [S575(100)]” value is given as 0.09328. The “Difference, UBA6 A0AVT1 1xPhospho [S36(100)]” value in data set [6] (27 vs DMSO, MOESM7) turned out to be 0.2252. Also, in data set [6] (27 vs DMSO, MOESM8), the “Difference, A0JNW5 1xPhospho [S414(100)] UHRF1BP1L” value came to 0.1475; the “Difference, A0JNW5 1xPhospho [S953(99.7)] UHRF1BP1L” value is recorded as -0.0085; the “Difference, A0MZ66 1xPhospho [S506(100)] SHTN1” value is 0.1099; the “Difference, A0MZ66 1xPhospho [S512(100)] SHTN1” value was determined as 0.06022. Further, in data set [6] (27 vs DMSO, MOESM8), the “Difference, A0MZ66 1xPhospho [T537(100)] SHTN1” value was -0.2879. For the same compound, in data set [6] (vs DMSO, MOESM9), the “Difference, Q5PRF9 1xPhospho [S592(100)] SAMD4B” value was found to be 0.05893; the “Difference, Q8NEM7 1xPhospho [S437(100)] SUPT20H” value worked out at 0.2274; the “Difference, Q96KQ7 1xPhospho [S140(100)] EHMT2” value is on record as 0.333; the “Difference, Q15398 1xPhospho [S725(100)] DLGAP5” value was 0.1236. For the same compound, the “Difference, Q15911 1xPhospho [S426(100)] ZFHX3” value in data set [6] (vs DMSO, MOESM9) stood at 0.1806.
Take `O=C(Nc1cnccc1N1CCOCC1)c1ccnn2cc(-c3ccc(Br)cc3)nc12` [compound 29]: in data set [5], the “impact on GSK3β Ser9 or GSK3β Tyr216 phosphorylation prior to degradation” value is given as “no impact observed”. Also, the “phosphorylation of Tyr216 after 2 h” value in data set [5] (1 µM, 2 h) is given as “some reduction in phosphorylation of Tyr216”.
